The values that follow come from ChEMBL document CHEMBL6182937, “Design, Synthesis, and Anti-ischemic Stroke Activity Evaluation of Novel GSNOR Inhibitors” (J Med Chem, 2025).

Calls of active or inactive are those of the source. The rule behind the calls is not given here.

Data set [1] can be described thus: Oral bioavailability in male C57BL/6 mouse at 10 mg/kg by LC-MS/MS analysis. Format: ADME, organism-based. Conditions: in vivo.
Data set [2] can be described thus: Tmax in Sprague-Dawley rat at 10 mg/kg, iv by LC-MS/MS analysis. Format: ADME, organism-based. To be noted: in vivo.
Data set [3] has as its system Rattus norvegicus. The experiment in a line: Neuroprotective activity against tMCAO- induced brain injury in Sprague-Dawley rat model assessed as reduction in infarct volume at 5 mg/kg, iv measured up to 24 hrs by TTC staining based analysis (reference value: 36.35 +/- 4.05%). The data set is classed as functional. Also noted: scale not given: the % may be the effect or the level left.

Data set [4] can be described thus: Clearance in Sprague-Dawley rat at 10 mg/kg, iv by LC-MS/MS analysis. The data set is classed as ADME, organism-based. Conditions: in vivo.
The species named for a further data set is Homo sapiens. Put plainly: Inhibition of GSNOR (unknown origin) at 1 uM in presence of NADH incubated for 10 mins by microplate reader analysis relative to control.
Data set [5] is described as follows: MRT (0 to t) in male C57BL/6 mouse at 10 mg/kg, po by LC-MS/MS analysis. Format: ADME, organism-based. To be noted: in vivo.
A short description of data set [6]: Half life in male C57BL/6 mouse at 2 mg/kg, iv by LC-MS/MS analysis. The data set is classed as ADME, organism-based. To be noted: in vivo.
A short description of data set [7]: Half life in male C57BL/6 mouse at 10 mg/kg, po by LC-MS/MS analysis. The data set is classed as ADME, organism-based. Conditions: in vivo.
Data set [8] concerns Rattus norvegicus. The experiment in a line: Neuroprotective activity against tMCAO- induced brain injury in Sprague-Dawley rat model assessed as reduction in neurological score at 10 mg/kg, iv measured up to 24 hrs Longa scale analysis. Format: functional, organism-based.
Data set [9] has as its system SH-SY5Y. Put plainly: Cytotoxicity against human SH-SY5Y cells up to 40 uM incubated for 24 hrs by CCK-8 assay. The data set is classed as functional, cell-based. Background: Formazan colour is commonly taken as a measure of viable cells.
Data set [10] can be described thus: Stability in rat plasma assessed as half life at 1 uM incubated up to 120 mins by LC-MS/MS analysis. Format: ADME, cell-free.
Data set [11] concerns Rattus norvegicus. The experiment in a line: Neuroprotective activity against tMCAO- induced brain injury in Sprague-Dawley rat model assessed as reduction in infarct volume at 10 mg/kg, iv measured up to 24 hrs by TTC staining based analysis (reference value: 36.35 +/- 4.05%). The data set is classed as functional. Details: scale not given: the % may be the effect or the level left.

The nature of data set [12]: MRT (0 to t) in Sprague-Dawley rat at 10 mg/kg, iv by LC-MS/MS analysis. Format: ADME, organism-based. Conditions: in vivo.
Data set [13] relates to Rattus norvegicus. Put plainly: Neuroprotective activity against tMCAO- induced brain injury in Sprague-Dawley rat model assessed as upregulation of clstn1 level in brain at 5 mg/kg, iv measured after 24 hrs by LC-MS/MS analysis. Format: functional, organism-based.
Data set [14] can be described thus: MRT (0 to t) in male C57BL/6 mouse at 2 mg/kg, iv by LC-MS/MS analysis. The data set is classed as ADME, organism-based. To be noted: in vivo.
For data set [15], the system named is SH-SY5Y. The experiment in a line: Neuroprotective activity against OGD/R-induced human […] cell injury model assessed as increase in cell viability at 10 uM measured for 24 hrs by CCK-8 assay. Format: functional, cell-based.
The nature of data set [16]: Cmax in Sprague-Dawley rat at 10 mg/kg, iv by LC-MS/MS analysis. Conditions: in vivo. Format: ADME, organism-based.
In data set [17] the test system is SH-SY5Y. Put plainly: Neuroprotective activity against OGD/R-induced human […] cell injury model assessed as cell survival measured for 24 hrs by CCK-8 assay. Format: functional, cell-based. To be noted: dose 1-10 µM.
Data set [18] deals with Rattus norvegicus. Put plainly: Neuroprotective activity against tMCAO- induced brain injury in Sprague-Dawley rat model assessed as […] at 5 mg/kg, iv measured up to 24 hrs. The data set is classed as functional, organism-based.
Data set [19] in a line: Metabolic stability in rat liver microsomes assessed as intrinsic clearance preincubated for 5 mins followed by NADPH addition and measured up to 60 mins by LC-MS/MS analysis. Format: ADME, Microsome. Conditions: time < 65 min, read-out: CLH. In general terms: Liver microsomes are a subcellular fraction often used to study metabolism.
Data set [20] in a line: AUC (0 to t) in Sprague-Dawley rat at 10 mg/kg, iv by LC-MS/MS analysis. Format: ADME, organism-based. To be noted: in vivo.
Data set [21] concerns Rattus norvegicus. The experiment in a line: Neuroprotective activity against tMCAO- induced brain injury in Sprague-Dawley rat model assessed as reduction in neurological score at 5 mg/kg, iv measured up to 24 hrs Longa scale analysis. The data set is classed as functional, organism-based.
A short description of data set [22]: Permeability of compound across apical to basal side in human Caco-2 cells at 10 uM incubated for 120 mins by LC-MS/MS analysis. The data set is classed as ADME, cell-based. Conditions: caco-2, 2 h. Background: Caco-2 cells form a polarised layer with tight junctions and transporters.
A short description of data set [23]: Half life in Sprague-Dawley rat at 10 mg/kg, iv by LC-MS/MS analysis. Format: ADME, organism-based. Conditions: in vivo.
Data set [24] in a line: Metabolic stability in rat liver microsomes assessed as half life preincubated for 5 mins followed by NADPH addition and measured up to 60 mins by LC-MS/MS analysis. To be noted: time < 65 min. Format: ADME, Microsome.
A further data set concerns the target CYP3A4 (Homo sapiens, UniProt P08684). The experiment in a line: Inhibition of human CYP3A4 in human liver microsome at 10 uM relative to control. The data set is classed as ADME. Conditions: human liver microsomes.
A further data set concerns the target CYP2C19 (Homo sapiens, UniProt P33261). The experiment in a line: Inhibition of human CYP2C19 in human liver microsome at 10 uM relative to control. The data set is classed as ADME. Conditions: human liver microsomes.
A further data set addresses CYP2D6 (Homo sapiens, UniProt P10635). The experiment in a line: Inhibition of human CYP2D6 in human liver microsome at 10 uM relative to control. Format: ADME. Conditions: human liver microsomes.
Data set [25] is described as follows: Inhibition of GSNOR (unknown origin) in presence of NADH incubated for 10 mins by microplate reader analysis. Details: species or system Homo sapiens.
In another data set the target is T1, CYP1A2 (Homo sapiens, UniProt P05177).
T1 sequence (P05177 whole entry): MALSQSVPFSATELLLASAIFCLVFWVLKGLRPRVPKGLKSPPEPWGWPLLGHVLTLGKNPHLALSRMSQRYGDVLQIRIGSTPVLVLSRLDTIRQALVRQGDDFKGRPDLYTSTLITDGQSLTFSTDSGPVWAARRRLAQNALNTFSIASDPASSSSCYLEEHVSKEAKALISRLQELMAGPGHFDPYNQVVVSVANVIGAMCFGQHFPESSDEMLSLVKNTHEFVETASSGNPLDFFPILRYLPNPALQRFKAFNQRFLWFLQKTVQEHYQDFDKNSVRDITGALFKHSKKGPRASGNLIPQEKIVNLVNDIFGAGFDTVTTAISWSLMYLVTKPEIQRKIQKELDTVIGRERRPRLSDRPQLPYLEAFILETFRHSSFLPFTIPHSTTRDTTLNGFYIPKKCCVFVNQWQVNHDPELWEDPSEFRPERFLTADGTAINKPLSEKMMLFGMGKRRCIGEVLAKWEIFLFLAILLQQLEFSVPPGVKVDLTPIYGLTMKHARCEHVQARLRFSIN
The experiment in a line: Inhibition of human CYP1A2 in human liver microsome at 10 uM relative to control. The data set is classed as ADME. To be noted: human liver microsomes.

The next data set has as its target CYP2C9 (Homo sapiens, UniProt P11712). The experiment in a line: Inhibition of human CYP2C9 in human liver microsome at 10 uM relative to control. Format: ADME. To be noted: human liver microsomes.

CYP2C9, sequence (P11712 whole entry): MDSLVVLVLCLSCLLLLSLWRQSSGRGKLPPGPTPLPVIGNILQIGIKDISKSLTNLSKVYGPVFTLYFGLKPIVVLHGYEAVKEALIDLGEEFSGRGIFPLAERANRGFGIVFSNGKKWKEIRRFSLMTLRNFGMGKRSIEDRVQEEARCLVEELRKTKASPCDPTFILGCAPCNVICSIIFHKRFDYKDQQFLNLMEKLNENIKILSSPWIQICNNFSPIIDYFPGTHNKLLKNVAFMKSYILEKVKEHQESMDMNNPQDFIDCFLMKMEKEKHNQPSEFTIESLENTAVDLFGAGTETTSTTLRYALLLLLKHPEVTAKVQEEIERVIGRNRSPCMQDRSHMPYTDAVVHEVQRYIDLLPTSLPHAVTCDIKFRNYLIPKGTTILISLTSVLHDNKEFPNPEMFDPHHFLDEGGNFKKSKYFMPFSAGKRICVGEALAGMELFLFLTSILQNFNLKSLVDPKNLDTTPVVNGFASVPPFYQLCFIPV
CYP2D6, sequence (P10635 whole entry): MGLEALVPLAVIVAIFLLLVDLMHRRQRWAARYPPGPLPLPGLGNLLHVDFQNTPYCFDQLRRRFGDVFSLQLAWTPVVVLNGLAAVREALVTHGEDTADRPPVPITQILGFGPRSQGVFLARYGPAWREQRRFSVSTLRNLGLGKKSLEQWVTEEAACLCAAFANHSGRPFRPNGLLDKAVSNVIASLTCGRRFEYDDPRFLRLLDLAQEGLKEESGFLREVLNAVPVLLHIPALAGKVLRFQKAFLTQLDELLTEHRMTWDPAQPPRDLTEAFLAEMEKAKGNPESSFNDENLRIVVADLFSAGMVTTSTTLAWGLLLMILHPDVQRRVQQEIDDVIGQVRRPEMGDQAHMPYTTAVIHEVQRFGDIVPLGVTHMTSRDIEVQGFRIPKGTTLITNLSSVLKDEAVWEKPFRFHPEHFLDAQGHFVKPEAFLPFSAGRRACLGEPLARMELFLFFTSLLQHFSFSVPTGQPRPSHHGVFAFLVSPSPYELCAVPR
CYP2C19, sequence (P33261 whole entry): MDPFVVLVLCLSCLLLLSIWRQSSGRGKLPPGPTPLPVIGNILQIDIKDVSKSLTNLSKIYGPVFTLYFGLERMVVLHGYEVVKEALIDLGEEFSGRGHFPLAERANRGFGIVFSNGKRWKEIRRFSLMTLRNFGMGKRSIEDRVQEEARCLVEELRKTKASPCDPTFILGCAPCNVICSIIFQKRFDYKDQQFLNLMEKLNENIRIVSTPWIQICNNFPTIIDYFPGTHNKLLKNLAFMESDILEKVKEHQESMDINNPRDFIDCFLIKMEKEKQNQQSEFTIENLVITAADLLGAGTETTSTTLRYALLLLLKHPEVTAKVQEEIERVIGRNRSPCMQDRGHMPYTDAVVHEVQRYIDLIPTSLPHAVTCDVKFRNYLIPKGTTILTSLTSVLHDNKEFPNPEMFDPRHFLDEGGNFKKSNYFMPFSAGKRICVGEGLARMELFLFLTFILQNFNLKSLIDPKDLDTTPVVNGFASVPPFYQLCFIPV
CYP3A4, sequence (P08684 whole entry): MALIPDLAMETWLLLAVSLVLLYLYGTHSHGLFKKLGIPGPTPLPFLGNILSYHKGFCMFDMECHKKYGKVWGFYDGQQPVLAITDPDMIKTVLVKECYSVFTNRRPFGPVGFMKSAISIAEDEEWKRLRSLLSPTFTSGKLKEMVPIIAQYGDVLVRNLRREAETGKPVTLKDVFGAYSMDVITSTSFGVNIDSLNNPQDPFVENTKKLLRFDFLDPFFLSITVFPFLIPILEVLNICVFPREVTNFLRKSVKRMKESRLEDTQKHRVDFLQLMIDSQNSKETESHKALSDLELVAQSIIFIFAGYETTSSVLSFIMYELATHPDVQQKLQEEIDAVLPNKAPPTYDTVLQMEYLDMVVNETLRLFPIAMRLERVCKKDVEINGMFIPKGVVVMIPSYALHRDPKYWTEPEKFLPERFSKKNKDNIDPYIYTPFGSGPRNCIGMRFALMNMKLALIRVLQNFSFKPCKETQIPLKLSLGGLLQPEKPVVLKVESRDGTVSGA

The bioavailability is dose-corrected exposure relative to a reference, in per cent. What is called Tmax is the time from dosing to the highest level. The term clearance denotes the rate of elimination divided by the concentration. For orientation: inhibition means the percentage by which the read-out fell short of the control. The MRT last is the average time that molecules of a dose stay in the body. The term half-life denotes how long it takes for the measured level to halve. Broadly, the Cmax is the highest concentration seen after dosing. By AUC(0-t) is commonly meant the area under the concentration-time curve up to a stated or last time point. For the compound `CCOc1cc(-n2c(-c3ccc(-n4ccnc4)cc3)cc3ccc(C(=O)OC)cc32)ccc1C(N)=O`, the bioavailability in data set [1] turned out to be 11.2%. In data set [2], the Tmax came out at 4.8 min. The Activity was 24.39% in the data set with Rattus norvegicus [3], 12.74% in the data set with Rattus norvegicus [11] and “Dose-dependent-effect” in the data set on SH-SY5Y [17]. The clearance in data set [4] is 20.9 mL/min/kg. Besides, the inhibition in the data set listed under Homo sapiens was determined as 16.4%. The MRT last in [5] amounted to 66 min; in data set [12], 42.6 min; in data set [14], 47.4 min. Besides, the half-life was 59.4 min in data set [6], 76.2 min in data set [7], 36 min in data set [23] and 158 min in [24]. For the same compound, the outcome with Rattus norvegicus [8], with SH-SY5Y [9], in the data set with Rattus norvegicus [13], in the data set with SH-SY5Y [15], in the data set on Rattus norvegicus [18] and in the data set with Rattus norvegicus [21] was Active. In addition, the half-life at 1 µM in data set [10] stood at 257 min. Also, the Cmax in data set [16] was 11600 ng/mL. In addition, in data set [19], the CLint scaled was 15.8 mL/min/kg. This compound also returned an AUC(0-t) in [20] of 8040 ng·h/mL. Further, the permeability result in data set [22] is “Permeable”.
The IC50 is the concentration at which inhibition is half-maximal. Take `CCOc1cc(-n2c(-c3ccc(-n4ccnc4)cc3)cc3ccc(C(=O)O)cc32)ccc1C(N)=O`: in data set [1], the bioavailability was found to be 6.64%. Also, the inhibition at 10 µM at CYP3A4 is 81.5%; against CYP2C19, 70.1%; against CYP2D6, 59.2%; at CYP1A2 it was 16.6%; on CYP2C9 it was 75%. The time to peak (Tmax) in data set [2] is 19.8 min. The compound further showed a clearance in data set [4] of 48.5 mL/min/kg. Further, the inhibition in the data set filed under Homo sapiens came to 95.1%. Further, the IC50 in data set [25] was determined as 44.1 nM. In addition, the outcome with SH-SY5Y [9] and with SH-SY5Y [15] was Active. The same compound returned an MRT last in data set [12] of 63 min. The same compound showed a Cmax in data set [16] of 2930 ng/mL. Moreover, the AUC(0-t) in data set [20] was found to be 3510 ng·h/mL. The compound also gave a half-life in data set [23] of 51 min.
